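96-well plates; 48 h exposure; 5 concentrations. Endpoints by linear interpolation between flanking doses. Not reached: highest tested concentration assigned. GI50: concentration for 50% inhibition of growth. TGI: concentration producing complete growth inhibition.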
Columns and labels:
Assay in all cases: NCI tumour cell line growth inhibition, 48 h
SNB-19 CNS = test system: SNB-19 CNS
SF-539 CNS = test system: SF-539 CNS
LOX IMVI melanoma = test system: LOX IMVI melanoma
NCI-H460 lung = test system: NCI-H460 lung
RPMI-8226 leukemia = test system: RPMI-8226 leukemia
NCI-H226 lung = test system: NCI-H226 lung
786-0 renal = test system: 786-0 renal
OVCAR-5 ovarian = test system: OVCAR-5 ovarian
NCI-H522 lung = test system: NCI-H522 lung
EKVX NSCLC = test system: EKVX NSCLC

| Structure (SMILES) | TGI (SNB-19 CNS) [µM] | TGI (SF-539 CNS) [µM] | TGI (LOX IMVI melanoma) [µM] | TGI (NCI-H460 lung) [µM] | TGI (RPMI-8226 leukemia) [µM] | TGI (NCI-H226 lung) [µM] | TGI (786-0 renal) [µM] | TGI (OVCAR-5 ovarian) [µM] | TGI (NCI-H522 lung) [µM] | TGI (EKVX NSCLC) [µM] | GI50 (SNB-19 CNS) [µM] | GI50 (SF-539 CNS) [µM] | GI50 (LOX IMVI melanoma) [µM] | GI50 (NCI-H460 lung) [µM] | GI50 (RPMI-8226 leukemia) [µM] | GI50 (NCI-H226 lung) [µM] | GI50 (786-0 renal) [µM] | GI50 (OVCAR-5 ovarian) [µM] | GI50 (NCI-H522 lung) [µM] | GI50 (EKVX NSCLC) [µM] |
| --- | --- | --- | --- | --- | --- | --- | --- | --- | --- | --- | --- | --- | --- | --- | --- | --- | --- | --- | --- | --- |
| CNC(=O)N(C)N=NCCCl | > 100 | > 100 | > 100 | > 100 | > 100 | > 100 | > 100 | > 100 | > 100 | > 100 |  |  |  |  |  |  |  |  |  |  |
| CO/N=C/c1cc(OC)c(OC)c(OC)c1 | > 100 | > 100 | > 100 | > 100 | > 100 | > 100 | > 100 | > 100 | > 100 | > 100 |  |  |  |  |  |  |  |  |  |  |
| CCCCCCCCCCCCOC1C(C(COC2OC(C3COC(C)(C)O3)C3OC(C)(C)OC23)NC(=O)Nc2ccc(C(=O)O)cc2)OC2OC(C)(C)OC21 (stereo not given) | 14.6 | 3.39 | 10.3 | 5.89 | 4.29 | 19.2 | 5.49 | 6.85 | 6.93 | 10.8 | 4.41 | 1.72 | 3.23 | 2.45 | 1.69 | 3.45 | 2.24 | 2.67 | 2.56 | 2.69 |
| Cc1cc(N)c(C)c2c1[nH]c1ccc(O)cc12 | > 100 | > 100 | > 100 | > 100 | > 100 | > 100 | > 100 | > 100 | 41.1 | > 100 |  |  |  |  |  |  |  |  |  |  |
| CCC[CH2][Sn]1([CH2]CCC)[O]N=C(c2ccccc2)C(c2ccccc2)[O]1 (stereo not given) | 5.04 | 3.39 | 2.86 | 15.8 | 4.38 | 5.59 | 2.83 | 9.31 | 1.47 | 3.01 | 2.14 | 1.79 | 1.38 | 4.46 | 0.588 | 2.09 | 1.45 | 2.84 | 0.362 | 1.16 |
| C=C1C(=O)O[C@@H]2C[C@@H]1CC/C(C)=C/CC/C(C)=C/CC[C@@]2(C)O | 76.2 | 42.5 | > 100 | 43.2 | 5.09 | 22.2 | 24 | 39.4 | 23.7 | 48.9 | 28.4 | 22.3 | 5.49 | 16.5 | 2.09 | 4.54 | 11.5 | 22.1 | 6.36 | 23.5 |
| CC(C)c1ccccc1NC(=O)CCc1n[nH]c(=S)o1 | > 100 | > 100 | > 100 | > 80.1 | > 72.1 | > 100 | > 100 | > 100 | > 100 | > 100 |  |  |  |  |  |  |  |  |  |  |
| CC(O)CCC(=O)c1ccoc1 (stereo not given) | > 10000 | > 10000 | > 10000 | > 10000 | 7900 | > 10000 | > 10000 | > 10000 | 8270 | > 9740 |  |  |  |  |  |  |  |  |  |  |

Source: PubChem BioAssay (NCI)
